In article PMC2934701 (The Journal of Biological Chemistry, 2010) one finds EC50 data, which are given here for 1 molecule.

Common to all, as to assay: Fluo-4 calcium assay, HEK293T + Galpha16gust44
Format in all cases: cell-based

In experiment [1] the target is T1, hTAS2R16 (ssr3-hTAS2R16) (Homo sapiens, UniProt Q9NYV7, Q177E).
T1 sequence (Q9NYV7 1-291 Q177E): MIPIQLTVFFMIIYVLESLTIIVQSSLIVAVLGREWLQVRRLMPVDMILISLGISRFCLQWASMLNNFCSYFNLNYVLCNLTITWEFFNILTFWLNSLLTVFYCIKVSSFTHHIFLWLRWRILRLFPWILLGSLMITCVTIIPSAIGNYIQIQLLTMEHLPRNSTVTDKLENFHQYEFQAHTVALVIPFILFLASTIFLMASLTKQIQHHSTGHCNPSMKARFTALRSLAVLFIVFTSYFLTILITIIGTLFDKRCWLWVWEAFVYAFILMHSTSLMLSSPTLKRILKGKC

Experiment [2] addresses T2, hTAS2R16 (ssr3-hTAS2R16) (Homo sapiens, UniProt Q9NYV7, W94Y).
T2 sequence (Q9NYV7 1-291 W94Y): T1 sequence (Q9NYV7 1-291 Q177E) with W94Y, E177Q

Experiment [3] concerns the target T3, hTAS2R16 (ssr3-hTAS2R16) (Homo sapiens, UniProt Q9NYV7, E86D).
T3 sequence (Q9NYV7 1-291 E86D): T1 sequence (Q9NYV7 1-291 Q177E) with E86D, E177Q

In experiment [4] the target is T4, hTAS2R16 (ssr3-hTAS2R16) (Homo sapiens, UniProt Q9NYV7, Q177A).
T4 sequence (Q9NYV7 1-291 Q177A): T1 sequence (Q9NYV7 1-291 Q177E) with E177A

The target in experiment [5] is T5, hTAS2R16 (ssr3-hTAS2R16) (Homo sapiens, UniProt Q9NYV7, I243V).
T5 sequence (Q9NYV7 1-291 I243V): T1 sequence (Q9NYV7 1-291 Q177E) with E177Q, I243V

Experiment [6] concerns the target T6, hTAS2R16 (ssr3-hTAS2R16) (Homo sapiens, UniProt Q9NYV7, H181T).
T6 sequence (Q9NYV7 1-291 H181T): T1 sequence (Q9NYV7 1-291 Q177E) with E177Q, H181T

For experiment [7], the target named is T7, hTAS2R16 (ssr3-hTAS2R16) (Homo sapiens, UniProt Q9NYV7, I243A).
T7 sequence (Q9NYV7 1-291 I243A): T1 sequence (Q9NYV7 1-291 Q177E) with E177Q, I243A

For experiment [8], the target named is T8, hTAS2R16 (ssr3-hTAS2R16) (Homo sapiens, UniProt Q9NYV7, Q177N).
T8 sequence (Q9NYV7 1-291 Q177N): T1 sequence (Q9NYV7 1-291 Q177E) with E177N

The structures appear in SMILES notation. Positions count from the first letter of the chain named.

`OCc1ccccc1O[C@@H]1O[C@H](CO)[C@@H](O)[C@H](O)[C@H]1O` [salicin]: the EC50 (as a rule, the concentration at which the effect is half-maximal) came to 220 µM at hTAS2R16 (ssr3-hTAS2R16) [1]; 1360 µM on hTAS2R16 (ssr3-hTAS2R16) [2]; 2130 µM at hTAS2R16 (ssr3-hTAS2R16) [3]; 550 µM on hTAS2R16 (ssr3-hTAS2R16) [4]; 840 µM on hTAS2R16 (ssr3-hTAS2R16) [5]; 1840 µM at hTAS2R16 (ssr3-hTAS2R16) [6]. Also, the EC50 at hTAS2R16 (ssr3-hTAS2R16) [7] is above 30000 µM; at hTAS2R16 (ssr3-hTAS2R16) [8] it was 390 µM.
